Measured values as given in paper PMC10053059, “Intraocular siRNA Delivery Mediated by Penetratin Derivative to Silence Orthotopic Retinoblastoma Gene” (Pharmaceutics, 2023).
Where no end group is shown, it is not given here.

How the values were obtained:
ARPE-19 cells [1] = assay: Intracellular co-localization, laser scanning confocal microscopy; type: cell-based, Human; details: ARPE-19, 1 µg/mL siRNA, serum-free medium, 4 h
Method: ARPE-19 cells in the logarithmic growth phase were seeded in confocal dishes with a density of 5000 cells/well and incubated for 24 h with 5% CO2 at 37 °C. After administration with various polyplexes at a final concentration of 1 µg/mL siRNA, the cells were further cultured in serum-free medium for 4 h. Then, the cells were washed with 0.2% (m/v) heparin sodium solution three times, fixed with 4% (m/v) paraformaldehyde solution for 5 min, stained with 1 µg/mL 4’,6-diamidino-2-phenylindole (DAPI) solution for 10 min, and moisturized with 50% (v/v) glycerol.

ARPE-19 cells [2] = assay: Cellular uptake pathway, dual-label flow cytometry with uptake inhibitors; type: cell-based, Human; details: ARPE-19, inhibitors of Table S1, n = 3 (Figure S4)
Method: (§1) For quantitative analysis of cellular uptake of different formulations, ARPE-19 cells and WERI-Rb-1 cells in the logarithmic growth phase were inoculated in 12-well plates with 50,000 cells in each well (n = 3), as mentioned above. After being incubated with various formulations at a final concentration of 1 µg/mL siRNA, the cells were trypsinized with 0.25% trypsin-EDTA, collected in Eppendorf tubes, and centrifuged at 1000 rpm for 5 min. The precipitated cells were subsequently suspended, washed twice in 200 μL phosphate buffer saline (PBS), and analyzed using a flow cytometer (Beckman, Brea, CA, USA). The percentage of FAM-positive cells in total viable cells was defined as the uptake efficiency. The effects of various inhibitors on cellular uptake were also assessed.
(§2) Table S1. Cellular uptake inhibitors and their function mechanisms
(§3) Inhibitor Final Mechanism of action
(§4) Filipin 20 μg/mL Bind to cholesterol on the cell membrane and inhibit endocytosis
(§5) Mß-CD 300 μg/mL Deplete cholesterol and suppress endocytosis
(§6) Genistein 20 μg/mL Inhibit lipid raft/caveolae mediated endocytosis
(§7) Colchicine 20 μg/mL Inhibit pinocytosis by binding to tubulin to prevent microtubule
(§8) Dynasore 20 μg/mL Inhibit […] in clathrin -mediated endocytosis
(§9) Figure S1. Polyacrylamide gel electrophoresis of primary polyplexes siRNA/PA. The ratio is N/P
(§10) of 3rd generation PAMAM to siRNA. […]

WERI-Rb-1 cells = assay: as above; type: cell-based, Human; details: WERI-Rb-1, inhibitors of Table S1, n = 3 (Figure S4)
Method: as §1, §2, §3, §4, §5, §6, §7, §8, §9, §10

eyes, retina = details: in vivo; cited from earlier work
From the text: We previously screened out penetratin from several of the most commonly reported cell-penetrating peptides based on the ex vivo permeability in excised cornea and in vivo ocular distribution. In a subsequent study, we optimized wild-type penetratin via amino acid mutation to further improve its permeability, and obtained a series of derivative peptides, which could be used as potential ocular absorption enhancers with low toxicity. […] Therefore, we chose 89WP to ...

Row | Sequence | internalization by cells (confocal observation) (ARPE-19 cells [1]) | effect of uptake inhibitors on cellular uptake of single fluorescence-labeled material (ARPE-19 cells [2]) | effect of uptake inhibitors on cellular uptake of single fluorescence-labeled material (WERI-Rb-1 cells) | distribution in the eyes after topical instillation (eyes, retina)
1 | RQIKIWFWWRRMKWKK [89WP-FAM, 5-carboxyfluorescein-labeled 89WP] | could be well internalized by the cells and distributed around the nuclei | did not affect cellular uptake | did not affect cellular uptake | 
2 | RQIKIWFWWRRMKWKK [89WP] |  |  |  | showed more distribution in the eyes, especially in the retina
